Assay results from ChEMBL document CHEMBL4800727 (2021).

Experiments:
[1] = target: Neuropeptide Y receptor type 2 (Homo sapiens) (UniProt P49146); experiment: hNPY2 Cerep panel; conditions: Compound concentration 10.0 uM
[2] = glyine Cerep panel; conditions: Compound concentration 10.0 uM
[3] = target: Homeodomain-interacting protein kinase 1 (Homo sapiens) (UniProt Q86Z02); experiment: homeodomain interacting protein kinase 1 Millipore kinase panel; conditions: Compound concentration 10.0 uM
[4] = target: Protein kinase C iota type (Homo sapiens) (UniProt P41743); experiment: protein kinase C, iota Millipore kinase panel; conditions: Compound concentration 10.0 uM
[5] = target: Adenosine receptor A2a (Homo sapiens) (UniProt P29274); experiment: hA2A Cerep panel; conditions: Compound concentration 10.0 uM
[6] = target: Substance-K receptor (Homo sapiens) (UniProt P21452); experiment: hNK2 Cerep panel; conditions: Compound concentration 10.0 uM
[7] = target: Inhibitor of nuclear factor kappa-B kinase subunit alpha (Homo sapiens) (UniProt O15111); experiment: conserved helix-loop-helix ubiquitous kinase Millipore kinase panel; conditions: Compound concentration 10.0 uM
[8] = target: Rho-associated protein kinase 1 (Homo sapiens) (UniProt Q13464); experiment: Rho-associated, coiled-coil containing protein kinase 1 Millipore kinase panel; conditions: Compound concentration 10.0 uM
[9] = target: Serine/threonine-protein kinase Chk1 (Homo sapiens) (UniProt O14757); experiment: CHK1 checkpoint homolog (S. pombe) Millipore kinase panel; conditions: Compound concentration 10.0 uM
[10] = target: Interleukin-1 receptor-associated kinase 1 (Homo sapiens) (UniProt P51617); experiment: interleukin-1 receptor-associated kinase 1 Millipore kinase panel; conditions: Compound concentration 10.0 uM
Interleukin-1 receptor-associated kinase 1 (Homo sapiens), sequence (P51617 whole entry, looked up): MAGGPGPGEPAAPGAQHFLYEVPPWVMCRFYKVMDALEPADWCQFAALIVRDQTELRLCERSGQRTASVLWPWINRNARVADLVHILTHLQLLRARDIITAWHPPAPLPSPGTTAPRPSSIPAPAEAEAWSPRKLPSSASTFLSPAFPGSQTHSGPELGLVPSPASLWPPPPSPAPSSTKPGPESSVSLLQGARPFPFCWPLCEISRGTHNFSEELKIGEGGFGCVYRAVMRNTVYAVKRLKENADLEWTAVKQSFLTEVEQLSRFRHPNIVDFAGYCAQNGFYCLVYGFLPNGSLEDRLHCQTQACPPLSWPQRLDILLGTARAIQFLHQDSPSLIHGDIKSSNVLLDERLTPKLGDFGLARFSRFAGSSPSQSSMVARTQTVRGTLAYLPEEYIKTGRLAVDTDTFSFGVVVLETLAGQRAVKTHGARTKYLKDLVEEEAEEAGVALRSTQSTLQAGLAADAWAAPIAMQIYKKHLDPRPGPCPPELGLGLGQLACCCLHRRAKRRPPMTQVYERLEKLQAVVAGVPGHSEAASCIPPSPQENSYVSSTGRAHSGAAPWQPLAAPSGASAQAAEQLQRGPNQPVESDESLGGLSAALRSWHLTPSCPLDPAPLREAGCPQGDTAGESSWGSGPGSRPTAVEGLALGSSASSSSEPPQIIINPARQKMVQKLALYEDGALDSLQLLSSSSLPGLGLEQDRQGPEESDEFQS

[11] = target: mTOR/FKBP12A/FKBP12B (Homo sapiens) (UniProt P62942+P68106+P42345); experiment: mechanistic target of rapamycin / FKBP12 Millipore kinase panel; assay type: protein-complex assay; conditions: Compound concentration 10.0 uM
mTOR/FKBP12A/FKBP12B (Homo sapiens), sequence (P62942 2-108 limits assumed, other chains not shown): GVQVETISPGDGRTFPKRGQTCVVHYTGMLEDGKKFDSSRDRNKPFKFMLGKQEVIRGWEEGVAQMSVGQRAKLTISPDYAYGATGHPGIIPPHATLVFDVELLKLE
mTOR/FKBP12A/FKBP12B (Homo sapiens), sequence (P68106 whole entry partner, other chains not shown): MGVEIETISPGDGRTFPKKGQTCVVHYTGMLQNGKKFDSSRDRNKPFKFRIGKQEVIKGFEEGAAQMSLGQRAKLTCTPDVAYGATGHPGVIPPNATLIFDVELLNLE

[12] = target: Protein kinase C delta type (Homo sapiens) (UniProt Q05655); experiment: protein kinase C, delta Millipore kinase panel; conditions: Compound concentration 10.0 uM
[13] = target: Serine/threonine-protein kinase DCLK2 (Homo sapiens) (UniProt Q8N568); experiment: doublecortin-like kinase 2 Millipore kinase panel; conditions: Compound concentration 10.0 uM
[14] = target: Cyclin-dependent kinase 5/CDK5 activator 1 (Homo sapiens) (UniProt Q00535+Q15078); experiment: cyclin-dependent kinase 5 / p25 Millipore kinase panel; assay type: protein-complex assay; conditions: Compound concentration 10.0 uM
Cyclin-dependent kinase 5/CDK5 activator 1 (Homo sapiens), sequence (Q00535 whole entry, canonical isoform): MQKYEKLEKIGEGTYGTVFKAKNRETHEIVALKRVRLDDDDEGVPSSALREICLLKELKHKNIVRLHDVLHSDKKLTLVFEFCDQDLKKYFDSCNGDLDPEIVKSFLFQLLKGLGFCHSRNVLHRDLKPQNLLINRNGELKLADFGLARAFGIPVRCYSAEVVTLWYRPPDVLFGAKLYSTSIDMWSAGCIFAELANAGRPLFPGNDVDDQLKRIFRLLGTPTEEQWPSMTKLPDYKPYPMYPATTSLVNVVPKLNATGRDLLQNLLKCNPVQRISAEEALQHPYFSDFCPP
Cyclin-dependent kinase 5/CDK5 activator 1 (Homo sapiens), sequence (Q15078 99-307 partner limits assumed): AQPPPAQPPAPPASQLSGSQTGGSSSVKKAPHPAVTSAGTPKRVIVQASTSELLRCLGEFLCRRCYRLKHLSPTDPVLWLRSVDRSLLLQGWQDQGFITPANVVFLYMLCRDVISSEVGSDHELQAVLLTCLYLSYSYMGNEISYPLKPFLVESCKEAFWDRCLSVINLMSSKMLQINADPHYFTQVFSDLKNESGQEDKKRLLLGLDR

[15] = target: Phosphatidylinositol 4,5-bisphosphate 3-kinase catalytic subunit beta isoform (Homo sapiens) (UniProt P42338); experiment: phosphoinositide-3-kinase, catalytic, beta polypeptide Millipore kinase panel; conditions: Compound concentration 10.0 uM
[16] = target: Dual specificity mitogen-activated protein kinase kinase 6 (Homo sapiens) (UniProt P52564); experiment: mitogen-activated protein kinase kinase 6 Millipore kinase panel; conditions: Compound concentration 10.0 uM
[17] = target: Prostaglandin G/H synthase 1 (Homo sapiens) (UniProt P23219); experiment: hCOX1 Cerep panel; conditions: Compound concentration 10.0 uM
[18] = target: Vasoactive intestinal polypeptide receptor 1 (Homo sapiens) (UniProt P32241); experiment: hVPAC1 Cerep panel; conditions: Compound concentration 10.0 uM
[19] = target: Mitogen-activated protein kinase kinase kinase 7 (Homo sapiens) (UniProt O43318); experiment: mitogen-activated protein kinase kinase kinase 7 Millipore kinase panel; conditions: Compound concentration 10.0 uM
Mitogen-activated protein kinase kinase kinase 7 (Homo sapiens), sequence (O43318 whole entry): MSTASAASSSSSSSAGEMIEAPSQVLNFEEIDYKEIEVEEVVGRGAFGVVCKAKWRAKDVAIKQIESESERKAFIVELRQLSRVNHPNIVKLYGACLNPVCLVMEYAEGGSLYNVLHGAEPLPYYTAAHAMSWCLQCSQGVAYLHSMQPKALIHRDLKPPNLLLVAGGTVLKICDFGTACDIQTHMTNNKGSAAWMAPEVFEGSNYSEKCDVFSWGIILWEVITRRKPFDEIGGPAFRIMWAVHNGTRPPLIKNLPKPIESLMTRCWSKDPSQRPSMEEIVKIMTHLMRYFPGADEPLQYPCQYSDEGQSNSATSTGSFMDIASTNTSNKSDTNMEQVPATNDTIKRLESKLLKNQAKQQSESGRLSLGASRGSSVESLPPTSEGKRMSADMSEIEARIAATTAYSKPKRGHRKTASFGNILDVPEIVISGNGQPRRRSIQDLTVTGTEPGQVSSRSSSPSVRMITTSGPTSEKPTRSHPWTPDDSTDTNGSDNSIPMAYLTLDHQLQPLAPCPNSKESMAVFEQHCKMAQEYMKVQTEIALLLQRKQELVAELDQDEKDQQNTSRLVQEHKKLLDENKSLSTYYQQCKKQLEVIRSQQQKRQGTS

[20] = target: T1, 5-hydroxytryptamine receptor 1A (Homo sapiens) (UniProt P08908); experiment: h5HT1A Cerep panel; conditions: Compound concentration 10.0 uM
T1 sequence (whole entry): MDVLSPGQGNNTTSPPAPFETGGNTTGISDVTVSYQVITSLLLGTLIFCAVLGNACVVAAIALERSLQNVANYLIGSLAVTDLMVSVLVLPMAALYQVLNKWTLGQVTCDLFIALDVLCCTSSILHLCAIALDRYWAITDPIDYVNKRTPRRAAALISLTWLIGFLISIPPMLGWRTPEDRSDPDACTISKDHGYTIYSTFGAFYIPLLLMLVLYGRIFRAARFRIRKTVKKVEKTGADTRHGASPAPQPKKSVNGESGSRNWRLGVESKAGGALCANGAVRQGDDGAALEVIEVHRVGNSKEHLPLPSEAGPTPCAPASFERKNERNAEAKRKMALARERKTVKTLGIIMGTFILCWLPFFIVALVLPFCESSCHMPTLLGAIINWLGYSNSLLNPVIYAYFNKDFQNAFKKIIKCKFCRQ

[21] = target: Serine/threonine-protein kinase MARK2 (Homo sapiens) (UniProt Q7KZI7); experiment: MAP/microtubule affinity-regulating kinase 2 Millipore kinase panel; conditions: Compound concentration 10.0 uM
Serine/threonine-protein kinase MARK2 (Homo sapiens), sequence (Q7KZI7 whole entry): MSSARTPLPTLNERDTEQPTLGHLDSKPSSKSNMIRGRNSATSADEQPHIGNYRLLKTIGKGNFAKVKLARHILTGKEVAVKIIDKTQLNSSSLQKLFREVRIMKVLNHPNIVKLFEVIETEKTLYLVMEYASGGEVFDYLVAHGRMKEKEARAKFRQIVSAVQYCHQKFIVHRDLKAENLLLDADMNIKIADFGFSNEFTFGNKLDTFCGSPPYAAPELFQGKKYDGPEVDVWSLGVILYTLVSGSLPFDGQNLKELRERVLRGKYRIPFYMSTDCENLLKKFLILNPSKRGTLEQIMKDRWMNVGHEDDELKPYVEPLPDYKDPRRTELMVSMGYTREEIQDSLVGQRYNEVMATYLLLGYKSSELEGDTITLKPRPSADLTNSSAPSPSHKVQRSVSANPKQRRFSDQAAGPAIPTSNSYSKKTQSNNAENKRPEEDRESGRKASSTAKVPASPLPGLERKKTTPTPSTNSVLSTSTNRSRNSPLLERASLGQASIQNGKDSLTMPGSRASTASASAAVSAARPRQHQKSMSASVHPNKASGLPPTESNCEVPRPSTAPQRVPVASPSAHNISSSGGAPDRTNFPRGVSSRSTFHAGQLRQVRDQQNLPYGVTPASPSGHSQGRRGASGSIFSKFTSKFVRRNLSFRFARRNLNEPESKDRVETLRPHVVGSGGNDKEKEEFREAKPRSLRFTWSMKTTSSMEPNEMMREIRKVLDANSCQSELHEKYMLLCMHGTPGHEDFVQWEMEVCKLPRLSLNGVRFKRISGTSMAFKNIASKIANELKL

[22] = target: Serine/threonine-protein kinase PLK1 (Homo sapiens) (UniProt P53350); experiment: polo-like kinase 1 Millipore kinase panel; conditions: Compound concentration 10.0 uM
[23] = target: Serine/threonine-protein kinase Sgk1 (Homo sapiens) (UniProt O00141); experiment: serum/glucocorticoid regulated kinase 1 Millipore kinase panel; conditions: Compound concentration 10.0 uM
Serine/threonine-protein kinase Sgk1 (Homo sapiens), sequence (O00141 whole entry): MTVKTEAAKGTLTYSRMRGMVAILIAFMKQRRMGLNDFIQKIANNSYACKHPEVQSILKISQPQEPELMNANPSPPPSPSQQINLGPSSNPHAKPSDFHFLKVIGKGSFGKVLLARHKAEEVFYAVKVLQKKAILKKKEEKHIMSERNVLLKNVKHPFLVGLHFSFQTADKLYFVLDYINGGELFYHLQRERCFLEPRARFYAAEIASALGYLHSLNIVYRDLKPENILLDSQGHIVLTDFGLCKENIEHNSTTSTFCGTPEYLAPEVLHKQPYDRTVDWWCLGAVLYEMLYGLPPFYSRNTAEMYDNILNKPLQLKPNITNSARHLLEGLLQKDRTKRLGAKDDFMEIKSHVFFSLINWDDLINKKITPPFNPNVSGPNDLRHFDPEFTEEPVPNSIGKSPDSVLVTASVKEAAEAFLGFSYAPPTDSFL

Rattus norvegicus = species on record: Rattus norvegicus; experiment: rSKCa channel Cerep panel; conditions: Compound concentration 10.0 uM
[24] = target: Endothelin-1 receptor (Homo sapiens) (UniProt P25101); experiment: hETA Cerep panel; conditions: Compound concentration 10.0 uM
[25] = target: Ephrin type-A receptor 7 (Homo sapiens) (UniProt Q15375); experiment: EPH receptor A7 Millipore kinase panel; conditions: Compound concentration 10.0 uM
[26] = target: Kappa-type opioid receptor (Rattus norvegicus) (UniProt P34975); experiment: rOP2 Cerep panel; conditions: Compound concentration 10.0 uM
[27] = target: Mitogen-activated protein kinase 1 (Homo sapiens) (UniProt P28482); experiment: mitogen-activated protein kinase 1 Millipore kinase panel; conditions: Compound concentration 10.0 uM
Mitogen-activated protein kinase 1 (Homo sapiens), sequence (P28482 whole entry): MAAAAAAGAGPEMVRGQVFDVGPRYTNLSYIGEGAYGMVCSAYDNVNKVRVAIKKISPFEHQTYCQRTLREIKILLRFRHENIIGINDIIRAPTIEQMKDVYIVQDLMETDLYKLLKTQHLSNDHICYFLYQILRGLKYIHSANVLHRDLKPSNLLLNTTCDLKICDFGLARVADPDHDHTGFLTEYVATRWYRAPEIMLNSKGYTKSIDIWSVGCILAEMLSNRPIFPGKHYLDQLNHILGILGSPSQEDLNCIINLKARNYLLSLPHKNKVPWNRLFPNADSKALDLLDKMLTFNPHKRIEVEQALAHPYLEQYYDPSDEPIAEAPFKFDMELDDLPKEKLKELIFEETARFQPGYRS

[28] = target: Serine/threonine-protein kinase PAK 6 (Homo sapiens) (UniProt Q9NQU5); experiment: p21 protein -activated kinase 6 Millipore kinase panel; conditions: Compound concentration 10.0 uM
[29] = target: Protein kinase C eta type (Homo sapiens) (UniProt P24723); experiment: protein kinase C, eta Millipore kinase panel; conditions: Compound concentration 10.0 uM
Protein kinase C eta type (Homo sapiens), sequence (P24723 whole entry): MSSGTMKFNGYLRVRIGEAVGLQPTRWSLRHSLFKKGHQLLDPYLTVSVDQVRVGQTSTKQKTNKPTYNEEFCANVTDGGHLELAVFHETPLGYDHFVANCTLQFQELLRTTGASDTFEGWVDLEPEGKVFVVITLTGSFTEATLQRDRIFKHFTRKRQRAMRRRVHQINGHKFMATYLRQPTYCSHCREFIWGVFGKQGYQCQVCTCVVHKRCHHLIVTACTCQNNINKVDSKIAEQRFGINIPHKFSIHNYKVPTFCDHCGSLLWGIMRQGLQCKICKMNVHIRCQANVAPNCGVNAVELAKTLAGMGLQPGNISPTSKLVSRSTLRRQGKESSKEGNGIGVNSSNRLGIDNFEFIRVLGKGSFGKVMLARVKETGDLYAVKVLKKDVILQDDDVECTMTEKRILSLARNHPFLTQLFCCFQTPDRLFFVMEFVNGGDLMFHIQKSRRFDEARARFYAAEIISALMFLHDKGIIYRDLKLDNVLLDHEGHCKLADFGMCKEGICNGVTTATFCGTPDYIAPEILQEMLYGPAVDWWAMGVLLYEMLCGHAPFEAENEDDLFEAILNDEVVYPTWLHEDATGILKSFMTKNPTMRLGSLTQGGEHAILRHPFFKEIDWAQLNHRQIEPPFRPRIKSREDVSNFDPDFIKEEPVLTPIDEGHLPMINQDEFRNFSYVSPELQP

[30] = target: 5-hydroxytryptamine receptor 2B (Homo sapiens, UniProt P41595); experiment: GPCRScan assay: inhibition of 5-HT2B; set-up: radioligand conc. used [nm] 1.0 – 2.0, parental cells stable HEK
5-hydroxytryptamine receptor 2B, sequence (P41595 whole entry): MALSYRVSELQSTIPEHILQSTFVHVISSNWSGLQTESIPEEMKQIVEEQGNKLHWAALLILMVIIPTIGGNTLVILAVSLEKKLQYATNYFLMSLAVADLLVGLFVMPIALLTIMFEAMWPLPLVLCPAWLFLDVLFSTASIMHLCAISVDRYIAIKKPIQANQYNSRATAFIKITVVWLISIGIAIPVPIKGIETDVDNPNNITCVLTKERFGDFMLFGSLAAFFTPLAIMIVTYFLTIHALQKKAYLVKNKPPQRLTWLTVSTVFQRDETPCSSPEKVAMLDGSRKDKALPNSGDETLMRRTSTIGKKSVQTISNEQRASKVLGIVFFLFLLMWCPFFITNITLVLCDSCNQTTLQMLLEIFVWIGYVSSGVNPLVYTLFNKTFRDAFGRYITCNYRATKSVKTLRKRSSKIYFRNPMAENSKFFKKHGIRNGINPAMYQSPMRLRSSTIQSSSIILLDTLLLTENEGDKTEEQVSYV

[31] = target: Proto-oncogene tyrosine-protein kinase receptor Ret (Homo sapiens) (UniProt P07949); experiment: ret proto-oncogene Millipore kinase panel; conditions: Compound concentration 10.0 uM
[32] = target: Serine/threonine-protein kinase TBK1 (Homo sapiens) (UniProt Q9UHD2); experiment: TANK-binding kinase 1 Millipore kinase panel; conditions: Compound concentration 10.0 uM
[33] = target: Myosin light chain kinase, smooth muscle (Homo sapiens) (UniProt Q15746); experiment: myosin light chain kinase Millipore kinase panel; conditions: Compound concentration 10.0 uM
[34] = target: RAF proto-oncogene serine/threonine-protein kinase (Homo sapiens) (UniProt P04049); experiment: v-raf-1 murine leukemia viral oncogene homolog 1 Millipore kinase panel; conditions: Compound concentration 10.0 uM
[35] = target: LIM domain kinase 1 (Homo sapiens) (UniProt P53667); experiment: LIM domain kinase 1 Millipore kinase panel; conditions: Compound concentration 10.0 uM
[36] = target: MAP kinase-activated protein kinase 5 (Homo sapiens) (UniProt Q8IW41); experiment: mitogen-activated protein kinase-activated protein kinase 5 Millipore kinase panel; conditions: Compound concentration 10.0 uM
[37] = target: Proto-oncogene tyrosine-protein kinase Src (Homo sapiens) (UniProt P12931); experiment: v-src sarcoma viral oncogene homolog Millipore kinase panel; conditions: Compound concentration 10.0 uM
[38] = target: Mitogen-activated protein kinase 10 (Homo sapiens) (UniProt P53779); experiment: mitogen-activated protein kinase 10 Millipore kinase panel; conditions: Compound concentration 10.0 uM
[39] = target: Protein kinase C zeta type (Homo sapiens) (UniProt Q05513); experiment: protein kinase C, zeta Millipore kinase panel; conditions: Compound concentration 10.0 uM
[40] = target: C-X-C chemokine receptor type 2 (Homo sapiens) (UniProt P25025); experiment: hBCXCR2 Cerep panel; conditions: Compound concentration 10.0 uM
[41] = target: Neuronal acetylcholine receptor; alpha4/beta2 (Homo sapiens) (UniProt P17787+P43681); experiment: hNneuronala4b2 Cerep panel; conditions: Compound concentration 10.0 uM
[42] = target: Serine/threonine-protein kinase WNK3 (Homo sapiens) (UniProt Q9BYP7); experiment: WNK lysine deficient protein kinase 3 Millipore kinase panel; conditions: Compound concentration 10.0 uM
[43] = target: Androgen receptor (Homo sapiens) (UniProt P10275); experiment: hAR Cerep panel; conditions: Compound concentration 10.0 uM

SMILES: COCCc1ccc(-c2c(C)nc3c(N4CCOCC4)ccnn23)cn1 [JNJ-42396302]
- effect [1]: 4.45%
- effect [2]: -23.1%
- inhibition [3]: 11%
- inhibition [4]: 3%
- effect [5]: 17.8%
- effect [6]: 9.7%
- inhibition [7]: -3%
- inhibition [8]: -6%
- inhibition [9]: -9%
- inhibition [10]: -3%
- inhibition [11]: 9%
- inhibition [12]: -2%
- inhibition [13]: -6%
- inhibition [14]: 0%
- inhibition [15]: 1%
- inhibition [16]: -5%
- effect [17]: 13%
- effect [18]: 2.05%
- inhibition [19]: 5%
- effect [20]: 8.65%
- inhibition [21]: 9%
- inhibition [22]: 0%
- inhibition [23]: -3%
- effect (Rattus norvegicus): 7.4%
- effect [24]: 5.55%
- inhibition [25]: 0%
- effect [26]: 1.7%
- inhibition [27]: 1%
- inhibition [28]: 5%
- inhibition [29]: -2%
- Ki ([30]; read-out: Ki): 2.29 µM
- Ki ([30]; read-out: pKi (converted)): 2.24 µM
- inhibition [31]: 5%
- inhibition [32]: -3%
- inhibition [33]: 2%
- inhibition [34]: 10%
- inhibition [35]: -3%
- inhibition [36]: 7%
- inhibition [37]: -5%
- inhibition [38]: 18%
- inhibition [39]: 5%
- effect [40]: 5.15%
- effect [41]: -3%
- inhibition [42]: 0%
- effect [43]: -13.8%
